According to patent publication EP1984353B1, “AURORA KINASE MODULATORS AND METHOD OF USE” (Amgen, Inc, priority 2006, dated 2007):
Like-named read-outs stand apart in the source and are kept apart here.

Assays:
[1] = target: T1, AuroraA-TPX2 (Homo sapiens, UniProt O14965); assay: AuroraA-TPX2 Homogeneous Time Resolved Fluorescent (HTRF) kinase assay; type: biochemical; conditions: average, read-out: AurA/TP X2_ IC50_IP (Avg)
T1 construct: 20 µL of AuroraA-TPX2 KD GST; GST
T1 sequence (O14965 133-383 limits assumed): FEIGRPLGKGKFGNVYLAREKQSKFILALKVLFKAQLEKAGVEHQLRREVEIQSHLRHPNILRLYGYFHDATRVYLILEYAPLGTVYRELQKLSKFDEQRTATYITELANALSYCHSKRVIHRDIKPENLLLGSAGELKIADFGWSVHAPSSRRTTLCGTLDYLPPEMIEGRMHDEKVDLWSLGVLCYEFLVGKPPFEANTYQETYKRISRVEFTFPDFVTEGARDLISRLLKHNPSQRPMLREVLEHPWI
T1 sequence (Q9ULW0 1-43 partner limits assumed): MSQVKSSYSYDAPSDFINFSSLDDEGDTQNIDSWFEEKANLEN
In short: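 HTRF read-out: europium anti-phosphoPLK antibody (0.02 nM) plus streptavidin-APC detect phosphorylated biotin-PLK after EDTA stop and overnight equilibration. Kinase step runs about 120 min with Aurora-A/TPX2, ATP and roughly 1 µM PLK peptide at pH 7.5 HEPES buffer with Mg2+ and DTT.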

[2] = target: T2, AuroraB (Homo sapiens, UniProt Q96GD4); assay: AuroraB Homogeneous Time Resolved Fluorescent (HTRF) kinase assay; type: biochemical; conditions: average, read-out: AurB_ _IC50_IP (Avg)
T2 construct: 20 µL of AuroraB FL His; His
T2 sequence (Q96GD4 whole entry): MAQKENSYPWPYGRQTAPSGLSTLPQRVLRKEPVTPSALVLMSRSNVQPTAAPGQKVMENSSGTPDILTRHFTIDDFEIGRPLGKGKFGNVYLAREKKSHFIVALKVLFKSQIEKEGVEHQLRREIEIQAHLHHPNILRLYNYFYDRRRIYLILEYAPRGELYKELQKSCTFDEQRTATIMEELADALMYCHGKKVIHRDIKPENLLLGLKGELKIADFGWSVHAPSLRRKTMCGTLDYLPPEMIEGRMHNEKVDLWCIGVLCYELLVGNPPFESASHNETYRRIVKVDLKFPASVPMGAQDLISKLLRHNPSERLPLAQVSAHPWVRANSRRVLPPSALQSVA
In short: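 HTRF read-out: after EDTA stop and ~60 min with europium anti-phospho-H3 antibody and streptavidin-APC, 655/615 nm ratio reports phosphorylation. Reaction: 400 pM AuroraB FL His, 23 µM ATP (at Km(app)), 0.1 µM biotin-Histone H3 peptide, 50 mM HEPES pH 7.5, MgCl/MnCl, ~90 min.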

[3] = system: phosphorylation of Histone H3; assay: HeLa cell 1-hour phospho-histone assay; type: cell-based; conditions: Homo sapiens, HeLa, 1 h, HeLa cells, 1 hour, average, read-out: pHH3 EC50_IP (Avg)
In short: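 HeLa cells were exposed to serially diluted compounds for 1 hour at 37 °C (0.5% DMSO final), then fixed, permeabilized and immunostained for phospho-histone H3 (Ser10) with Hoechst counterstain. High-content imaging scored the percentage of pHH3-positive cells.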

[4] = given as numbers, unit inferred

| Structure (SMILES) | IC50 [1, 4] [nM] | IC50 [2, 4] [nM] | EC50 [3, 4] [nM] | IC50 ([1]; given as class symbols) [nM] | IC50 ([2]; given as class symbols) [nM] | EC50 ([3]; given as class symbols) [nM] |
| --- | --- | --- | --- | --- | --- | --- |
| Nc1nccc(-c2cccnc2Oc2ccc(Nc3ncc(-c4ccccc4)c4ccccc34)cc2)n1 [compound 260, N-(4-((3-(2-amino-4-pyrimidinyl)-2-pyridinyl)oxy)phenyl)-4-phenyl-1-isoquinolinamine] | 33 | 14.8 | 228 | – | – | – |
| Nc1n[nH]cc1-c1cccnc1Oc1ccc(Nc2nnc(-c3ccccc3)c3ccsc23)cc1 [compound 304, N-(4-((3-(3-amino-1H-pyrazol-4-yl)-2-pyridinyl)oxy)phenyl)-4-phenylthieno[2,3-d]pyridazin-7-amine] | 16.4 | 68.7 | 788 | – | – | – |
| Nc1nccc(-c2cccnc2Oc2ccc(Nc3nnc(-c4ccccc4)cc3C(=O)O)cc2)n1 [compound 433, 3-((4-((3-(2-amino-4-pyrimidinyl)-2-pyridinyl)oxy)phenyl)amino)-6-phenyl-4-pyridazinecarboxylic acid] | – | – | – | 500 to 2500 | 500 to 2500 | 500 to 2500 |
| Cc1csc(-c2nnc(Nc3ccc(Oc4ncccc4-c4ccnc(N)n4)cc3)c3ccccc23)n1 [compound 330, N-(4-((3-(2-amino-4-pyrimidinyl)-2-pyridinyi)oxy)phenyl)-4-(4-methyl-1,3-thiazol-2-yl)-1-phthalazinamine] | – | – | – | ≤ 100 | ≤ 100 | ≤ 100 |
| O=S(=O)(O)CCCNc1nccc(-c2cccnc2Oc2ccc(Nc3nnc(-c4ccccc4)c4ccccc34)cc2)n1 [compound 421, 3-((4-(2-((4-((4-phenyl-1-phthalazinyl)amino)phenyl)oxy)-3-pyridinyl)-2-pyrimidinyl)amino)-1-propanesulfonic acid] | – | – | – | 100 to 500 | 100 to 500 | 500 to 2500 |
| Nc1nccc(-c2cccnc2Oc2ccc(Nc3nnc(-c4ccc(CCO)cc4)c4ccccc34)cc2)n1 [compound 247, 2-(4-(4-((4-((3-(2-amino-4-pyrimidinyl)-2-pyridinyl)oxy)phenyl)amino)-1-phthalazinyl)phenyl)ethanol] | 19.8 | 4.2 | 335 | – | – | – |
| Cc1cc(-c2ccccc2)nnc1Nc1ccc(Oc2ncccc2-c2ccnc(NCCCN3CCCC3)n2)cc1 [compound 425, 4-methyl-6-phenyl-N-(4-((3-(2-((3-(1-pyrrolidinyl)propyl)amino)-4-pyrimidinyl)-2-pyridinyl)oxy)phenyl)-3-pyridazinamine] | – | – | – | ≤ 100 | ≤ 100 | 100 to 500 |
| Cc1csc(-c2cnc(Nc3ccc(Oc4ncccc4-c4ccnc(N)n4)cc3)c3ccccc23)c1 [compound 262, N-(4-((3-(2-amino-4-pyrimidinyl)-2-pyridinyl)oxy)phenyl)-4-(4-methyl-2-thienyl)-1-isoquinolinamine] | 34.8 | 15.8 | 334 | – | – | – |
| Cc1cc(N2CCCCC2)nnc1Nc1ccc(Oc2ncccc2-c2ccnc(N)n2)cc1 [compound 334, N-(4-((3-(2-amino-4-pyrimidinyl)-2-pyridinyl)oxy)phenyl)-4-methyl-6-(1-piperidinyl)-3-pyridazinamine] | – | – | – | 100 to 500 | ≤ 100 | 500 to 2500 |
| Nc1n[nH]cc1-c1cccnc1Oc1ccc(Nc2nnc(Cc3ccccc3)c3ccccc23)cc1 [compound 303, N-(4-((3-(3-amino-1H-pyrazol-4-yl)-2-pyridinyl)oxy)phenyl)-4-(phenylmethyl)-1-phthalazinamine] | 3.2 | 16.6 | 729 | – | – | – |
| Nc1nccc(-c2cccnc2Oc2ccc(Nc3nnc(C4CCCCC4)c4ccccc34)cn2)n1 [compound 274, N-(6-((3-(2-amino-4-pyrimidinyl)-2-pyridinyl)oxy)-3-pyridinyl)-4-cyclohexyl-1-phthalazinamine] | – | – | – | ≤ 100 | ≤ 100 | ≤ 100 |
| Cc1csc(-c2nnc(Nc3ccc(Oc4ncccc4-c4c[nH]nc4N)cc3)c3ccccc23)n1 [compound 309, N-(4-((3-(3-amino-1H-pyrazol-4-yl)-2-pyridinyl)oxy)phenyl)-4-(4-methyl-1,3-thiazol-2-yl)-1-phthalazinamine] | – | – | – | ≤ 100 | ≤ 100 | 500 to 2500 |
| OCCCNc1nccc(-c2cccnc2Oc2ccc(Nc3nnc(-c4ccccc4)c4ccccc34)cc2)n1 [compound 339, 3-((4-(2-((4-((4-phenyl-1-phthalazinyl)amino)phenyl)oxy)-3-pyridinyl)-2-pyrimidinyl)amino)-1-propanol] | – | – | – | ≤ 100 | ≤ 100 | 100 to 500 |
| Cc1cc(-c2ccccc2)nnc1Nc1ccc(Oc2ncccc2-c2ccnc(NCCCN3CCN(C)CC3)n2)cc1 [compound 422, 4-methyl-N-(4-((3-(2-((3-(4-methyl-1-piperazinyl)propyl)amino)-4-pyrimidinyl)-2-pyridinyl)oxy)phenyl)-6-phenyl-3-pyridazinamine] | – | – | – | ≤ 100 | ≤ 100 | 100 to 500 |
